Earlier results on 13 molecules are cited in PubChem BioAssay AID1259410 (Chemical Carcinogenesis Research Information System (CCRIS), 2018).

For this data set, the system named is rodent tumor promotion studies, tumor incidence. In words: CCRIS tumor promotion studies.

Regarding `CCCCN(CCCC)N=O`, the outcome by setting is: (Carcinogen: DIETHYLNITROSAMINE, 55-18-5, N-METHYLNITROSOUREA, 684-93-3, DIHYDROXY-DI-N- PROPYLNITROSAMINE, 53609-64-6, Carcinogen: DIETHYLNITROSAMINE, 55-18-5, N-METHYLNITROSOUREA, 684-93-3, DIHYDROXY-DI-N- PROPYLNITROSAMINE, 53609-64-6, Doses [Carcinogen]: 100 MG/KG IN SALINE AT BEGINNING OF STUDY, 20 MG/KG IN CITRATE BUFFERED SOLUTION ON D 2, 5, 8 AND 11, 0.1% IN DRINKING, Doses [Carcinogen]: 100 MG/KG IN SALINE AT BEGINNING OF STUDY, 20 MG/KG IN CITRATE BUFFERED SOLUTION ON D 2, 5, 8 AND 11, 0.1% IN DRINKING, Doses [Promoter]: 0, 50 PPM IN DRINKING WATER BEGINNING POST SEQUENTIAL CARCINOGEN TREATMENT AND CONTINUING FOR DURATION OF STUDY (STUDY D, Route [Carcinogen]: IP, IP, ORAL, Route [Carcinogen]: IP, IP, ORAL, Route [Promoter]: ORAL, Species: RAT, Strain/Sex: F344/MALE) “esophagus: papilloma, squamous cell carcinoma; tongue: papilloma”; (Carcinogen: DIETHYLNITROSAMINE, 55-18-5, N-METHYLNITROSOUREA, 684-93-5, DIHYDROXY-DI-N- PROPYLNITROSAMINE, 53609-64-6, Carcinogen: DIETHYLNITROSAMINE, 55-18-5, N-METHYLNITROSOUREA, 684-93-5, DIHYDROXY-DI-N- PROPYLNITROSAMINE, 53609-64-6, Doses [Carcinogen]: 100 MG/KG IN SALINE AT BEGINNING OF STUDY, 20 MG/KG IN CITRATE BUFFERED SOLUTION ON D 2, 5, 8 AND 11, 0.1% IN DRINKING, Doses [Carcinogen]: 100 MG/KG IN SALINE AT BEGINNING OF STUDY, 20 MG/KG IN CITRATE BUFFERED SOLUTION ON D 2, 5, 8 AND 11, 0.1% IN DRINKING, Doses [Promoter]: 0, 50 PPM IN DRINKING WATER BEGINNING POST SEQUENTIAL CARCINOGEN TREATMENT AND CONTINUING FOR DURATION OF STUDY (STUDY D, Route [Carcinogen]: IP, IP, ORAL, Route [Carcinogen]: IP, IP, ORAL, Route [Promoter]: ORAL, Species: RAT, Strain/Sex: F344/MALE) “lung: adenoma; esophagus: papilloma”.
As for `CCCCCCCCC1=C(CCCCCCCC(=O)OC)C1`, the outcome (Doses [Carcinogen]: DIET, Doses [Promoter]: DIET, Route [Carcinogen]: ORAL, Route [Promoter]: ORAL, Species: FISH, Strain/Sex: RAINBOW TROUT/MALE,FEMALE) was “liver”.
Turning to `CCCCCCCCCCCC(=O)O`, the outcome (Carcinogen: 7,12-DIMETHYLBENZ(A)ANTHRACENE, Doses [Carcinogen]: TOP, Route [Carcinogen]: DERMAL, Route [Promoter]: DERMAL, Species: MOUSE, Strain/Sex: MALE,FEMALE) is recorded as “integumentary system (skin)”.
For `O=C(CO)[C@@H](O)[C@H](O)[C@H](O)CO`, for the setting “Carcinogen: N-NITROSOMORPHOLINE, 59-89-2, Doses [Carcinogen]: 100 MG/KG/WK IN DRINKING WATER FOR 7 WK, Doses [Promoter]: 0, 120 G/L IN DRINKING WATER AD LIBITUM BEGINNING 2 D AFTER LAST CARCINOGEN DOSE (STUDY DURATION: 501 D), Route [Carcinogen]: ORAL, Route [Promoter]: ORAL, Species: RAT, Strain/Sex: SPRAGUE-DAWLEY/MALE”, the outcome is on record as “liver: hepatocellular carcinoma”.
As to `ClC1=C(Cl)C2(Cl)C3C(Cl)C=CC3C1(Cl)C2(Cl)Cl` (configuration not stated), the outcome (Carcinogen: DIETHYLNITROSAMINE, 55-18-5, Doses [Carcinogen]: 20 PPM IN DRINKING WATER FOR 14 WK, Doses [Promoter]: 0, 5, 10 PPM TECHNICAL GRADE IN DIET BEGINNING 4 WK POST LAST CARCINOGEN DOSE AND CONTINUING FOR 25 WK (STUDY DURATION:, Doses [Promoter]: 0, 5, 10 PPM TECHNICAL GRADE IN DIET BEGINNING 4 WK POST LAST CARCINOGEN DOSE AND CONTINUING FOR 25 WK (STUDY DURATION:, Route [Carcinogen]: ORAL, Route [Promoter]: ORAL, Species: MOUSE, Strain/Sex: B6C3F1/MALE) is given as “liver: adenoma or carcinoma”.
For `CC(C)(C)CC(C)(C)c1ccc(O)cc1`, the outcome by setting is: (Carcinogen: N-ETHYL-N'-NITRO-N-NITROSOGUANIDINE, 4245-77-6, Doses [Carcinogen]: 20 MG/KG BW ONCE AT 3 MO OF AGE, Doses [Promoter]: 100 MG/KG BW IN DMSO BEGINNING AT 3 MO OF AGE, 5X/WK FOR FIRST 2 WK, 3X/WK FOR NEXT 11 WK, 2X/WK FOR STUDY DURATION (STU, Route [Carcinogen]: INTRAUTERINE, Route [Promoter]: SUBCUTANEOUS, Species: RAT, Strain/Sex: DONRYU/FEMALE) “uterus: adenocarcinoma”; (Doses [Carcinogen]: 20 MG/KG ONCE AT 11 WK OF AGE, Doses [Promoter]: 0, 100 MG/KG/D IN DMSO, EVERY OTHER DAY POSTNATAL DAYS 1 THROUGH 5 (STUDY DURATION: 15 MO), Route [Carcinogen]: INTRAUTERINE, Route [Promoter]: SUBCUTANEOUS, Species: RAT, Strain/Sex: DONRYU/FEMALE) “uterus: adenocarcinoma”; (Doses [Carcinogen]: 20 MG/KG ONCE AT 11 WK OF AGE, Doses [Promoter]: 0, 100 MG/KG/D IN DMSO, EVERY OTHER DAY POSTNATAL DAYS 1 THROUGH 15 (STUDY DURATION: 15 MO), Route [Carcinogen]: INTRAUTERINE, Route [Promoter]: SUBCUTANEOUS, Species: RAT, Strain/Sex: DONRYU/FEMALE) “uterus: adenocarcinoma”.
Take `CC(C)(c1ccc(O)cc1)c1ccc(O)cc1`: the outcome (Carcinogen: 7,120Dimethylbenzanthracene (57-97-6), Doses [Carcinogen]: 30 mg/kg bw once to female offspring at 50 days of age, Doses [Promoter]: 0, 25, 250 ug/kg daily for 18 d from d 2 to d 20 postpartum to dams, Doses [Promoter]: 0, 25, 250 ug/kg daily for 18 d from d 2 to d 20 postpartum to dams, Route [Carcinogen]: Intragastric gavage, Route [Promoter]: Intragastric gavage, Species: Rat, Strain/Sex: Sprague Dawley CD/Female) is recorded as “breast tumors: incidence increased in offspring of 250 ug/kg dams; latent period”.
As for `CCC(=O)Oc1ccc2c(c1)CC[C@@H]1[C@@H]2CC[C@]2(C)[C@@H](OC(=O)CC)CC[C@@H]12`, the outcome (Carcinogen: 1,2-DIMETHYLHYDRAZINE, 540-73-8, Doses [Carcinogen]: 8 MG/KG BW 1/WK FOR 20 WK, Doses [Promoter]: 0, 0.1 ML OF A SOLUTION IN OLIVE OIL 1/WK FOR 30 WK ADMINISTERED 1 DAY PRIOR TO EACH CARCINOGEN DOSE AND CONTINUING FOR, Route [Carcinogen]: SUBCUTANEOUS, Route [Promoter]: SUBCUTANEOUS, Species: MOUSE, Strain/Sex: C3H/FEMALE) is “uterus: sarcoma”.
On to `C=C/C=C\C1C2/C=C/CC(=O)O[C@@]34C[C@@H](C)[C@]5(O)C6C=C(C)C(=O)[C@@]6(O)CC(CO)=C[C@H]5[C@@H]3[C@@]4(C)COC(=O)C2C2C(/C=C/C=C/C=C/CCC)C12` (some centres not stated), for which the outcome (Carcinogen: 7,12-DIMETHYLBENZ[A]ANTHRACENE, 57-97-6, Doses [Carcinogen]: 100 UG IN O.1 ML ACETONE, Doses [Promoter]: 0, 2 UG IN 0.1 ML OF METHANOL 2/WK FOR 16 WK BEGINNING 1 WK POST CARCINOGEN DOSE THEN 5 UG 2/WK FOR 13 WK (STUDY DURATIO, Route [Carcinogen]: DERMAL, Route [Promoter]: DERMAL, Species: MOUSE, Strain/Sex: CD-1/FEMALE) is “skin: tumor”.
Consider `O=[As](O)(O)O`, for which the outcome (Carcinogen: 7,12-DIMETHYLBENZ[A]ANTHRACENE [57-97-6], Doses [Carcinogen]: 50 UG 2 X A WK FOR 2 WKS (STUDY DURATION: 25 WKS), Doses [Promoter]: 25 MG/L IN DRINKING WATER FOR 25 WKS, Route [Carcinogen]: DERMAL (SKIN PAINTING), Route [Promoter]: ORAL (DRINKING WATER), Species: MOUSE, Strain/Sex: SWISS NUDE HAIRLESS/MALE) was “skin; papillomas”.
On to `C=CCC1(C(C)C)C(=O)NC(=O)NC1=O`, for which the outcome (Carcinogen: N-NITROSODIETHYLAMINE, 55-18-5, Doses [Carcinogen]: 75 MG/KG BW IN 0.85% SALINE ONCE, Doses [Promoter]: 0, 453 PPM IN DIET FOR DURATION OF STUDY BEGINNING 2 WK POST CARCINOGEN DOSE (STUDY DURATION: 78 WK), Route [Carcinogen]: INTRAPERITONEAL, Route [Promoter]: ORAL, Species: RAT, Strain/Sex: F344/MALE) is on record as “liver: adenoma”.
For the molecule `O=C1O[C@H]([C@H](O)CO)C(O)=C1O`, the outcome reads like this: (Carcinogen: N-BUTYL-N-(4-HYDROXYBUTYL)NITROSAMINE, 3817-11-6, Doses [Carcinogen]: 0.05% IN DRINKING WATER FOR 4 WK, Doses [Promoter]: 0, 5% IN DIET FOR 32 WK (STUDY DURATION: 36 WK), Route [Carcinogen]: ORAL, Route [Promoter]: ORAL, Species: RAT, Strain/Sex: F344/MALE) “urinary bladder: papilloma, carcinoma”; (Carcinogen: N-BUTYL-N-(4-HYDROXYBUTYL)NITROSAMINE, 3817-11-6, Doses [Carcinogen]: 0.05% IN DRINKING WATER FOR 4 WK, Doses [Promoter]: 0, 5% IN DIET FOR 32 WK BEGINNING POST CARCINOGEN (STUDY DURATION: 36 WK), Route [Carcinogen]: ORAL, Route [Promoter]: ORAL, Species: RAT, Strain/Sex: F344/MALE) “bladder: papilloma, carcinoma”.
For `O=C([O-])[C@H](O)[C@@H](O)[C@H](O)[C@H](O)CO.O=C([O-])[C@H](O)[C@@H](O)[C@H](O)[C@H](O)CO.[Cu+2]`, the outcome (Carcinogen: N-nitrosodiethylamine (DEN) (55-18-5), N-methylnitrosourea (MNU) (684-93-5), 1,2-dimethylhydrazine (DMH) (540-73-8), N-b, Carcinogen: N-nitrosodiethylamine (DEN) (55-18-5), N-methylnitrosourea (MNU) (684-93-5), 1,2-dimethylhydrazine (DMH) (540-73-8), N-b, Doses [Carcinogen]: DEN (100 mg/kg at commencement), MNU (4 injections of 20 mg/kg in first 2 wks), DMH (4 injections of 40 mg/kg in second, Doses [Carcinogen]: DEN (100 mg/kg at commencement), MNU (4 injections of 20 mg/kg in first 2 wks), DMH (4 injections of 40 mg/kg in second, Doses [Promoter]: 0, 10, 300, 3000, 6000 ppm in diet immediately after completion of initiator treatment for 25 wk, Doses [Promoter]: 0, 10, 300, 3000, 6000 ppm in diet immediately after completion of initiator treatment for 25 wk, Route [Carcinogen]: Intraperitoneal (DEN and MNU), subcutaneous (DMH), oral (BBN and DHPN), Route [Carcinogen]: Intraperitoneal (DEN and MNU), subcutaneous (DMH), oral (BBN and DHPN), Route [Promoter]: Oral, Species: Rat, Strain/Sex: BrlHan:WIST Jcl (GALAS)/Male (9-12/group)) was “liver: gst-p-positive lesions (p<0.05 at 300 and 3000 ppm and p<0.01 at 6000 ppm”.
